*1 amine or outer side, *2 acyl side, *3 side chain or, on linkers, in order; H or OH if unused. Where a SMILES comes first, the peptide text is derived from it. Side-chain parts run from the residue outwards. [ ]: non-standard residue; d: D form. The star is where a group is joined. C20 diacid = O=C(O)CCCCCCCCCCCCCCCCCCC(=O)*; γGlu = O=C(O)[C@H](CCC(=O)[*:2])N[*:1]; αMeL = CC(C)C[C@](C)(N)C(=O)O; AEEA = NCCOCCOCC(=O)O; Aib = CC(C)(N)C(=O)O

One may read the EC50 as the concentration that produces a half-maximal response. Usually Ki stands for the equilibrium dissociation constant of an inhibitor or competing ligand from its target.

For one experiment, the target named is T1, hGIPR (Homo sapiens, UniProt P48546).
T1 construct: expressed in transfected cells; host or cells: HEK293
T1 sequence (P48546 22-466): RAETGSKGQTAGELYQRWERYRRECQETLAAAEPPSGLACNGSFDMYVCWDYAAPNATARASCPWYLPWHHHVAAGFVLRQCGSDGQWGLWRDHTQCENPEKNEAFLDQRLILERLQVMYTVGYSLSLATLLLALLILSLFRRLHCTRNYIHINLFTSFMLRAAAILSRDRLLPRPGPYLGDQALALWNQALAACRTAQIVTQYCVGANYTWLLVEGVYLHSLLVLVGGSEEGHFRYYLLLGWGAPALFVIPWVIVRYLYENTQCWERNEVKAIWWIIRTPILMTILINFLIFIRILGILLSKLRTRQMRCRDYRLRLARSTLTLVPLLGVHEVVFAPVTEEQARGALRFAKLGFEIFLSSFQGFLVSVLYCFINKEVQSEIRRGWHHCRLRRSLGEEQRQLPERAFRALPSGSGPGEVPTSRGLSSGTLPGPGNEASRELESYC
The experiment in a line: cAMP assay in HEK293 cells expressing hGIPR, 0.1% casein. As to conditions: in the presence of 0.1% casein; read-out: cAMP EC50, GIPR. The experiment is classed as cell-based. For orientation: Changes in cAMP serve as a functional read-out for many G protein-coupled receptors.

The target of experiment [1] is T2, human GIP receptor (GIPR) (Homo sapiens, UniProt P48546).
T2 construct: expressed in transfected cells; host or cells: HEK293 (membranes)
T2 sequence (P48546 22-466): T1 sequence (P48546 22-466)
In words: Radioligand competition binding (SPA), human GIPR membranes. The settings on record: HEK293 membranes, SPA, bacitracin present; mean; read-out: Ki, GIPR. An excerpt:
(§1) Radioligand competition binding assays are run to determine the equilibrium dissociation constant for exemplary compounds and comparator molecules.
(§2) Competition curves are plotted as the percent specific inhibition (y-axis) versus log concentration of compound (x-axis) and analyzed using a four parameter nonlinear regression fit with variable slope (ABase or Genedata).

For experiment [2], the target named is T3, human glucagon receptor (GcgR) (Homo sapiens, UniProt P47871).
T3 construct: expressed in transfected cells; host or cells: HEK293 (membranes)
The experiment in a line: Radioligand competition binding (SPA), human GcgR membranes. As to conditions: HEK293 membranes, SPA, bacitracin present; mean; read-out: Ki, GcgR.
From the text: as §1, §2
On the technique in general: In a radioligand displacement assay an active substance lowers the binding of a labelled ligand.

Another experiment deals with T4, GLP-1 receptor (GLP-1R) (Homo sapiens, UniProt P43220).
T4 construct: expressed in transfected cells; host or cells: HEK293 (membranes)
In words: Radioligand competition binding (SPA), human GLP-1R membranes. The settings on record: HEK293 membranes, SPA, bacitracin present; mean; read-out: Ki, GLP-1R.
From the text: as §1, §2

The target of the next experiment is hGLP-1R (Homo sapiens, UniProt P43220). The experiment in a line: cAMP assay in HEK293 cells expressing hGLP-1R, 0.1% casein. Format: cell-based. As to conditions: in the presence of 0.1% casein; read-out: cAMP EC50, GLP-1R.
The next experiment concerns the target T5, hGcgR (Homo sapiens, UniProt P47871).
T5 construct: expressed in transfected cells; host or cells: HEK293
The experiment in a line: cAMP assay in HEK293 cells expressing hGcgR, 0.1% casein. Format: cell-based. The settings on record: in the presence of 0.1% casein; read-out: cAMP EC50, GcGR.

T4 sequence (P43220 24-463): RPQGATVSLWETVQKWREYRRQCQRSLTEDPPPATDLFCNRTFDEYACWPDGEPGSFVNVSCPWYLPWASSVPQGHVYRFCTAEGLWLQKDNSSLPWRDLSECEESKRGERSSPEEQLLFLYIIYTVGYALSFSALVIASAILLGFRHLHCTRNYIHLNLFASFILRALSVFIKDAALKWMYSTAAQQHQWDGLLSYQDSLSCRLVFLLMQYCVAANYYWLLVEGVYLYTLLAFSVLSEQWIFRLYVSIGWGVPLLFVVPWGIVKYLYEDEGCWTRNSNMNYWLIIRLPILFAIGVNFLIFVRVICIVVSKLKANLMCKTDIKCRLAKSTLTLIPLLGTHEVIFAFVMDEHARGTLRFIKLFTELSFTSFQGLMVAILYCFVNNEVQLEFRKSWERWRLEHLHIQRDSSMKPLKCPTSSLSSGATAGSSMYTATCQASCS
Chain of hGLP-1R (P43220 24-463): as above
T3 sequence (P47871 26-477): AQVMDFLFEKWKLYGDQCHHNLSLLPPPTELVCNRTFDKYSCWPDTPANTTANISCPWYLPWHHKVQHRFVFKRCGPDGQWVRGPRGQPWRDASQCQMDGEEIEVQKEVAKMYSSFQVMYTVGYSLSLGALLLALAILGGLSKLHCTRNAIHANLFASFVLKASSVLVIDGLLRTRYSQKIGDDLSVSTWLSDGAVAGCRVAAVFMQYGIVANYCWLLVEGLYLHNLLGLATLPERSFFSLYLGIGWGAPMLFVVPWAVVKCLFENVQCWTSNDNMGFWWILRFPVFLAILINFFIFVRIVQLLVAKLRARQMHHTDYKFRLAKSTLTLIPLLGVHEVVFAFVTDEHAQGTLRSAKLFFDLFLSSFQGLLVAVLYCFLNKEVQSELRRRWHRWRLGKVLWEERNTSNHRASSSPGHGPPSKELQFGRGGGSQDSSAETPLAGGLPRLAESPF
T5 sequence (P47871 26-477): as above

Take `CC[C@H](C)[C@H](NC(=O)[C@H](Cc1ccccc1)NC(=O)[C@H](C)NC(=O)[C@H](Cc1c[nH]cn1)NC(=O)[C@H](CCC(N)=O)NC(=O)[C@H](C)NC(=O)[C@H](CCCCNC(=O)COCCOCCNC(=O)CC[C@H](NC(=O)CCCCCCCCCCCCCCCCCCC(=O)O)C(=O)O)NC(=O)[C@H](CCCCN)NC(=O)[C@H](CC(=O)O)NC(=O)[C@H](CC(C)C)NC(=O)[C@](C)(CC(C)C)NC(=O)[C@@H](NC(=O)[C@H](CO)NC(=O)[C@H](Cc1ccc(O)cc1)NC(=O)[C@H](CC(=O)O)NC(=O)[C@H](CO)NC(=O)[C@@H](NC(=O)[C@H](Cc1ccccc1)NC(=O)[C@@H](NC(=O)CNC(=O)[C@H](CCC(N)=O)NC(=O)C(C)(C)NC(=O)[C@@H](N)Cc1ccc(O)cc1)[C@@H](C)O)[C@@H](C)O)[C@@H](C)CC)C(=O)N[C@@H](CCC(=O)O)C(=O)N[C@@H](Cc1ccc(O)cc1)C(=O)N[C@@H](CC(C)C)C(=O)N[C@@H](CC(C)C)C(=O)N[C@@H](C)C(=O)NC(C)(C)C(=O)NCC(=O)N1CCC[C@H]1C(=O)N[C@@H](CO)C(=O)N[C@@H](CO)C(=O)NCC(=O)N[C@@H](C)C(=O)N1CCC[C@H]1C(=O)N1CCC[C@H]1C(=O)N1CCC[C@H]1C(=O)N[C@@H](CO)C(N)=O` [Example 2] (H-Y[Aib]QGTFTSDYSI[αMeL]LDKK([AEEA-γGlu-C20 diacid])AQHAFIEYLLA[Aib]GPSSGAPPPS-NH2): the figures for the EC50 at hGIPR, at hGLP-1R and at hGcgR were 0.0474 nM, 0.207 nM and 0.0553 nM, respectively. Further, the results for the Ki (in experiment [1]; in experiment [2]; at GLP-1 receptor (GLP-1R)) were 0.0665 nM, 3.71 nM and 4.5 nM, respectively.

Turning to `CC[C@H](C)[C@H](NC(=O)[C@H](Cc1ccccc1)NC(=O)[C@H](C)NC(=O)[C@H](CCC(N)=O)NC(=O)[C@H](C)NC(=O)[C@H](C)NC(=O)[C@H](CCCCNC(=O)COCCOCCNC(=O)COCCOCCNC(=O)CC[C@H](NC(=O)CCCCCCCCCCCCCCCCCCC(=O)O)C(=O)O)NC(=O)[C@H](CCCCN)NC(=O)[C@H](CC(=O)O)NC(=O)[C@H](CC(C)C)NC(=O)[C@](C)(CC(C)C)NC(=O)[C@@H](NC(=O)[C@H](CO)NC(=O)[C@H](Cc1ccc(O)cc1)NC(=O)[C@H](CC(=O)O)NC(=O)[C@H](CO)NC(=O)[C@@H](NC(=O)[C@H](Cc1ccccc1)NC(=O)[C@@H](NC(=O)CNC(=O)[C@H](CCC(N)=O)NC(=O)C(C)(C)NC(=O)[C@@H](N)Cc1ccc(O)cc1)[C@@H](C)O)[C@@H](C)O)[C@@H](C)CC)C(=O)N[C@@H](CCC(=O)O)C(=O)N[C@@H](Cc1ccc(O)cc1)C(=O)N[C@@H](CC(C)C)C(=O)N[C@@H](CC(C)C)C(=O)N[C@@H](CCC(=O)O)C(=O)NC(C)(C)C(=O)NCC(=O)N1CCC[C@H]1C(=O)N[C@@H](CO)C(=O)N[C@@H](CO)C(=O)NCC(=O)N[C@@H](C)C(=O)N1CCC[C@H]1C(=O)N1CCC[C@H]1C(=O)N1CCC[C@H]1C(=O)N[C@@H](CO)C(N)=O` [Example 5] (H-Y[Aib]QGTFTSDYSI[αMeL]LDKK([AEEA-AEEA-γGlu-C20 diacid])AAQAFIEYLLE[Aib]GPSSGAPPPS-NH2), the EC50 was 0.0757 nM at hGIPR, 0.147 nM on hGLP-1R and 0.0226 nM at hGcgR. The Ki in experiment [1] amounted to 0.179 nM; in experiment [2] it was 0.422 nM; on GLP-1 receptor (GLP-1R) it was 36.7 nM.

On to `CC[C@H](C)[C@H](NC(=O)[C@H](Cc1ccccc1)NC(=O)[C@H](C)NC(=O)[C@](C)(CCCCN)NC(=O)[C@H](CCC(N)=O)NC(=O)[C@H](C)NC(=O)[C@H](CCCCNC(=O)COCCOCCNC(=O)COCCOCCNC(=O)CC[C@H](NC(=O)CCCCCCCCCCCCCCCCCCC(=O)O)C(=O)O)NC(=O)[C@H](CCCCN)NC(=O)[C@H](CC(=O)O)NC(=O)[C@H](CC(C)C)NC(=O)[C@H](CC(C)C)NC(=O)[C@@H](NC(=O)[C@H](CO)NC(=O)[C@H](Cc1ccc(O)cc1)NC(=O)[C@H](CC(=O)O)NC(=O)[C@H](CO)NC(=O)[C@@H](NC(=O)[C@H](Cc1ccccc1)NC(=O)[C@@H](NC(=O)CNC(=O)[C@H](CCC(N)=O)NC(=O)C(C)(C)NC(=O)[C@@H](N)Cc1ccc(O)cc1)[C@@H](C)O)[C@@H](C)O)[C@@H](C)CC)C(=O)N[C@@H](CCC(=O)O)C(=O)N[C@@H](Cc1ccc(O)cc1)C(=O)N[C@@H](CC(C)C)C(=O)N[C@@H](CC(C)C)C(=O)N[C@@H](CCC(=O)O)C(=O)NCC(=O)NCC(=O)N1CCC[C@H]1C(=O)N[C@@H](CO)C(=O)N[C@@H](CO)C(=O)NCC(=O)N[C@@H](C)C(=O)N1CCC[C@H]1C(=O)N1CCC[C@H]1C(=O)N1CCC[C@H]1C(=O)N[C@@H](CO)C(N)=O` [Example 8], for which the EC50 at hGIPR turned out to be 0.114 nM; at hGLP-1R, 0.117 nM; at hGcgR, 0.12 nM. The values for the Ki (in experiment [1]; in experiment [2]; on GLP-1 receptor (GLP-1R)) were 0.0958 nM, 30.4 nM and 29.4 nM, respectively.

`CC[C@H](C)[C@H](NC(=O)[C@H](Cc1ccccc1)NC(=O)[C@H](C)NC(=O)[C@H](Cc1c[nH]cn1)NC(=O)[C@H](CCC(N)=O)NC(=O)[C@H](C)NC(=O)[C@H](CCCCNC(=O)CC[C@H](NC(=O)CC[C@H](NC(=O)CCCCCCCCCCCCCCCCCCC(=O)O)C(=O)O)C(=O)O)NC(=O)[C@H](CCCCN)NC(=O)[C@H](CC(=O)O)NC(=O)[C@H](CC(C)C)NC(=O)[C@](C)(CC(C)C)NC(=O)[C@@H](NC(=O)[C@H](CO)NC(=O)[C@H](Cc1ccc(O)cc1)NC(=O)[C@H](CC(=O)O)NC(=O)[C@H](CO)NC(=O)[C@@H](NC(=O)[C@H](Cc1ccccc1)NC(=O)[C@@H](NC(=O)CNC(=O)[C@H](CCC(N)=O)NC(=O)C(C)(C)NC(=O)[C@@H](N)Cc1ccc(O)cc1)[C@@H](C)O)[C@@H](C)O)[C@@H](C)CC)C(=O)N[C@@H](CCC(=O)O)C(=O)N[C@@H](Cc1ccc(O)cc1)C(=O)N[C@@H](CC(C)C)C(=O)N[C@@H](CC(C)C)C(=O)N[C@@H](CCC(=O)O)C(=O)NCC(=O)NCC(=O)N1CCC[C@H]1C(=O)N[C@@H](CO)C(=O)N[C@@H](CO)C(=O)NCC(=O)N[C@@H](C)C(=O)N1CCC[C@H]1C(=O)N1CCC[C@H]1C(=O)N1CCC[C@H]1C(=O)N[C@@H](CO)C(N)=O` [Example 9] (H-Y[Aib]QGTFTSDYSI[αMeL]LDKK([γGlu-γGlu-C20 diacid])AQHAFIEYLLEGGPSSGAPPPS-NH2; N-terminus assumed): the EC50 on hGIPR is 0.0522 nM; at hGLP-1R it was 0.0931 nM; on hGcgR, 0.139 nM. Further, the results for the Ki (in experiment [1]; in experiment [2]; at GLP-1 receptor (GLP-1R)) were 0.126 nM, 8.27 nM and 11.5 nM, respectively.

Turning to `CC[C@H](C)[C@H](NC(=O)[C@H](Cc1ccccc1)NC(=O)[C@H](C)NC(=O)C(C)(C)NC(=O)[C@H](CCC(N)=O)NC(=O)[C@H](C)NC(=O)[C@H](CCCCNC(=O)COCCOCCNC(=O)CC[C@H](NC(=O)CCCCCCCCCCCCCCCCCCC(=O)O)C(=O)O)NC(=O)[C@H](CCCCN)NC(=O)[C@H](CC(=O)O)NC(=O)[C@H](CC(C)C)NC(=O)[C@](C)(CC(C)C)NC(=O)[C@@H](NC(=O)[C@H](CO)NC(=O)[C@H](Cc1ccc(O)cc1)NC(=O)[C@H](CC(=O)O)NC(=O)[C@H](CO)NC(=O)[C@@H](NC(=O)[C@H](Cc1ccccc1)NC(=O)[C@@H](NC(=O)CNC(=O)[C@H](CCC(N)=O)NC(=O)C(C)(C)NC(=O)[C@@H](N)Cc1ccc(O)cc1)[C@@H](C)O)[C@@H](C)O)[C@@H](C)CC)C(=O)N[C@@H](CCC(=O)O)C(=O)N[C@@H](Cc1ccc(O)cc1)C(=O)N[C@@H](CC(C)C)C(=O)N[C@@H](CC(C)C)C(=O)N[C@@H](CCC(=O)O)C(=O)NC(C)(C)C(=O)NCC(=O)N1CCC[C@H]1C(=O)N[C@@H](CO)C(=O)N[C@@H](CO)C(=O)NC(C)(C)C(=O)N[C@@H](C)C(=O)N1CCC[C@H]1C(=O)N1CCC[C@H]1C(=O)N1CCC[C@H]1C(=O)N[C@@H](CO)C(N)=O` [Example 14] (H-Y[Aib]QGTFTSDYSI[αMeL]LDKK([AEEA-γGlu-C20 diacid])AQ[Aib]AFIEYLLE[Aib]GPSS[Aib]APPPS-NH2; N-terminus assumed), the EC50 on hGIPR worked out at 0.0356 nM; at hGLP-1R, 0.146 nM; at hGcgR, 0.0876 nM. Further, the values for the Ki (in experiment [1]; in experiment [2]; on GLP-1 receptor (GLP-1R)) were 0.035 nM, 2.64 nM and 6.27 nM, respectively.

(Values after patent US11542313B2, “Incretin analogs and uses thereof” (Eli Lilly and Company, priority 2017, dated 2023).)
